Legend:
[1] = tested on: TNBS model of ulcerative colitis; experiment: Murine TNBS model of ulcerative colitis, rectal versus intraperitoneal (FIG. 2); type: in vivo
human LPMCs T cells = experiment: ΔΨm in human LPMC CD45+CD3+ T cells, JC-1 flow cytometry (Example 12); type: cell-based; settings: 5 μM, 60 min, JC-1, relative to negative control
Text: The Model-Lamina propria mononuclear cells (LPMC) in the human intestine are comprised in part by T cells which mediate physiological and pathological processes including inflammatory bowel disease. LPMCs can be isolated from human tissue biopsies. After isolation […] cells remain viable ex vivo under appropriate culture conditions for periods of time that allow ex vivo experiments. These cells can be used to investigate mechanisms that regulate their mitochondrial function and survival They contain respiring mitochondria and as such their response to test agents may be assessed. Uncoupling is identified and quantified by a detecting a drop in the electrochemical gradient across the mitochondrial inner membrane (ΔΨm). […] The isolated cells were counted and checked for viability using 0.1% trypan blue (viability ranged from 86% to 94%). […] A flow cytometer FACSVerse flow cytometer and FACSSuite software [BD Biosciences] was used for quantification of JC-1 fluorescence in CD45+CD3+ cells. […] Consequently, mitochondrial depolarization is indicated by a decrease in the red/green fluorescence intensity ratio. […] LPMC CD45+CD3+ T cells were first defined by their fluorescence emission from labeling with eFluor® 450-anti-CD3 antibody and PerCP-Cyanine5.5-[…] antibody. The fluorescence intensity of JC-1 detected at 525 nm and 590 nm in the CD45+CD3+ T cell population was then measured. […]

[2] = cited from earlier work

## O=C(Nc1ccc([N+](=O)[O-])cc1Cl)c1cc(Cl)ccc1O [Niclosamide, 5-chloro-N-(2-chloro-4-nitrophenyl)-2-hydroxybenzamide]
[1]; administered rectally (locally)
  efficacy in murine TNBS model of ulcerative colitis: robust efficacy
[1]; intraperitoneal injection (systemically)
  efficacy in murine TNBS model of ulcerative colitis: not by intraperitoneal injection
Human LPMCs T cells
  change in ΔΨm in human LPMCs T cells: decrease
[2]; at 20° C.
  water solubility: 5 to 8 µg/mL
[2]
  solubility in acetone: soluble
  solubility in ether, ethanol and chloroform: sparingly soluble
